Here are results for 26 molecules from patent US20220169598A1, “HALOGENATED PHENYLSULFONAMIDE HYDROXAMIC ACID COMPOUNDS, COMPOSITIONS AND USES THEREOF AS SELECTIVE HDAC6 INHIBITORS” (2681603 ONTARIO INC., priority 2019, published 2022).

One data set has as its system MV-4-11. Kind of data set: Cytotoxicity in cell lines. It is filed as cell-based. The following applies: Homo sapiens, read-out: IC50 MV-411. Here is the method: (§1) The cytotoxicity of exemplary compounds of the application was tested in multiple cell lines including MV-4-11, MOLM-13, MCF-7, MRC9, K562 and MM.1S. The therapeutic index was evaluated by determining the toxicity of the exemplary compounds in healthy cell lines including fibroblasts and HUVEC.

The subject of another data set is MOLM-13. Kind of data set: Cytotoxicity in cell lines. Type of data set: cell-based. The following applies: Homo sapiens, MOLM-13, read-out: IC50 MOLM-13. Here is the method:
as §1

Another data set concerns the target T1, HDAC6 (Homo sapiens, UniProt Q9UBN7).
T1 sequence (Q9UBN7 1-1215): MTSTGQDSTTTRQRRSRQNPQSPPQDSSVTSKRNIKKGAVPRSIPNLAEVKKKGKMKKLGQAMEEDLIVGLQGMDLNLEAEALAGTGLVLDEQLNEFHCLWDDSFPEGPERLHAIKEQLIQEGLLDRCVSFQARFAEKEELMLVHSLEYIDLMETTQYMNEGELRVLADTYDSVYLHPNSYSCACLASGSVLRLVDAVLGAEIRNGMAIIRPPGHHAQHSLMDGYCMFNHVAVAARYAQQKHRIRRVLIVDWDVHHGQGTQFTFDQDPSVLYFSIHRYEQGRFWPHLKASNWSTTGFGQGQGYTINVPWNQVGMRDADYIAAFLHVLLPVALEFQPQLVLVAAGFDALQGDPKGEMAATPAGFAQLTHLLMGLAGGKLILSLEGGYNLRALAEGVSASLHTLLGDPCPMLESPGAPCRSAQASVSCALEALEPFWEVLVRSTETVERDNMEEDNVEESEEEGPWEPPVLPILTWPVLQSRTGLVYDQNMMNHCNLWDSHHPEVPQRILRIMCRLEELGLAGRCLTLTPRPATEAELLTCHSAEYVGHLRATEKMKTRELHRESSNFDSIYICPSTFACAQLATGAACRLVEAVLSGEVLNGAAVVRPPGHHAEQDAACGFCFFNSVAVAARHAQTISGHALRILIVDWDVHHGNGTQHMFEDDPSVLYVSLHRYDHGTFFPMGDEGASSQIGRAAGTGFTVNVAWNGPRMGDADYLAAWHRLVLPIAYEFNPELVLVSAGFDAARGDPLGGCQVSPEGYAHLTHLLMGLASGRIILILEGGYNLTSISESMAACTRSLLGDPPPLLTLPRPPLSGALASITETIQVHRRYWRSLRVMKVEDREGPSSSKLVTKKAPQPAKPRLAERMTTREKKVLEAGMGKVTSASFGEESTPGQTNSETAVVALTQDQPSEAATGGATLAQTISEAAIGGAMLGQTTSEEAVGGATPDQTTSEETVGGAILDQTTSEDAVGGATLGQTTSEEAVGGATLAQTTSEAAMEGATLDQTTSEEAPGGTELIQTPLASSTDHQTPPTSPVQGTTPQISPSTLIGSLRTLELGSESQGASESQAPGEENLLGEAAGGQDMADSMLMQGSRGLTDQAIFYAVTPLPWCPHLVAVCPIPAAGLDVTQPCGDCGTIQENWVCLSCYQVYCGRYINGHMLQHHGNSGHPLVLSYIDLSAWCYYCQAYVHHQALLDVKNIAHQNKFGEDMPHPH
In words: in vitro activity-based HDAC assay. Type of data set: biochemical. The following applies: ranges given; read-out: IC50 for HDAC6. Here is the method: The exemplary compounds of Formula I and structurally related compounds were synthesized to assess their structure-activity relationship. […] The IC50 values for each exemplary compound were used to calculate the selectivity of the exemplary compounds for Formula I to HDAC6. The selectivity of each exemplary compound for HDAC6 was determined from examining the potency of HDAC6 in relation to the highest binding affinity of the other HDAC isoforms tested.

Data set [1] in a line: Plasma stability by LC-MS. The following applies: mouse plasma. It is filed as in vitro ADME. How it is done:
The stability of select compounds of the application in plasma was assessed quantitatively through LC-MS and the results are shown in Table 6.

pIC50: −log10 of the molar value. Like-named read-outs stand apart in the source and are kept apart here.

As to `O=C(NO)c1ccc(CN(C2CC2)S(=O)(=O)c2c(F)c(F)cc(F)c2F)cc1` [Compound I-14, 4-((N-cyclopropyl-2,3,5,6-tetrafluorophenylsulfonamido)methyl)-N-hydroxybenzamide], in the data set with MV-4-11 (MV4-11, Table 4), the pIC50 was 5.24.

On to `O=C(Cc1ccc(CN(C2CCCCC2)S(=O)(=O)c2cc(F)c(F)c(F)c2F)cc1)NO` [Compound I-72], for which the negative-log IC50 (pIC50) with MV-4-11 (MV4-11, Table 5) was 6.24. On to `O=C(NO)c1ccc(CN(Cc2ccc(F)cc2)S(=O)(=O)c2c(F)c(F)c(F)c(F)c2F)cc1` [Compound I-9, N-hydroxy-4-((2,3,4,5,6-pentafluoro-N-(4-fluorobenzyl)phenylsulfonamido)methyl)benzamide], for which, in the data set with MOLM-13 (Table 4), the pIC50 is 5.28. Consider `O=C(NO)c1ccc(CN(Cc2ccc(C(F)(F)F)cc2)S(=O)(=O)c2c(F)c(F)c(F)c(F)c2F)cc1` [Compound I-10, N-hydroxy-4-((2,3,4,5,6-pentafluoro-N-(4-(trifluoromethyl)benzyl)phenylsulfonamido)methyl)benzamide], for which the pIC50 in the data set on MOLM-13 (Table 4) was 5.04. As to `O=C(NO)c1ccc(CN(Cc2ccc(F)nc2)S(=O)(=O)c2cc(F)c(F)c(F)c2F)cc1` [Compound I-27, N-hydroxy-4-((2,3,4,5-tetrafluoro-N-((6-fluoropyridin-3-yl)methyl)phenylsulfonamido)methyl)benzamide], the pIC50 with MV-4-11 (MV4-11, Table 4) was 6.07. On to `O=C(/C=C/c1ccc(CN(C(=O)c2c(F)c(F)c(F)c(F)c2F)C2CC2)cc1)NO` [Compound I-83, (E)-N-cyclopropyl-2,3,4,5,6-pentafluoro-N-(4-(3-(hydroxyamino)-3-oxoprop-1-en-1-yl)benzyl)benzamide], for which the negative logarithm of the IC50 (pIC50) in the data set with MV-4-11 (MV4-11, Table 5) was 6.12. On the same count and under the same terms, for `Cc1ccc(CN(Cc2ccc(CC(=O)NO)cc2)S(=O)(=O)c2cc(F)c(F)c(F)c2F)cc1F` [Compound I-73] the value was 5.96. For the molecule `CC(c1ccc(F)cc1)N(Cc1ccc(/C=C/C(=O)NO)cc1)S(=O)(=O)c1c(F)c(F)c(F)c(F)c1F` (centres unmarked) [Compound I-60, (E)-N-hydroxy-3-(4-((2,3,4,5,6-pentafluoro-N-(1-(4-fluorophenyl)ethyl)phenylsulfonamido)methyl)phenyl)acrylamide], the pIC50 was 7.52 to 8.00 on HDAC6 and 6.33 in the data set on MV-4-11 (MV4-11, Table 5). On to `Cc1ccc(CN(Cc2ccc(C(=O)NO)cc2)S(=O)(=O)c2cc(F)c(F)c(F)c2F)c(F)c1` [Compound I-26, N-hydroxy-4-((2,3,4,5-tetrafluoro-N-(2-fluoro-4-methylbenzyl)phenylsulfonamido)methyl)benzamide], for which, in the data set with MV-4-11 (MV4-11, Table 4), the pIC50 is 5.73. For the molecule `O=C(NO)c1ccc(CN(Cc2ccccn2)S(=O)(=O)c2cc(F)c(F)c(F)c2F)cc1` [Compound I-20, N-hydroxy-4-((2,3,4,5-tetrafluoro-N-(pyridin-2-ylmethyl)phenylsulfonamido)methyl)benzamide], the pIC50 in the data set on MV-4-11 (MV4-11, Table 4) is 6.32. Regarding `O=C(/C=C/c1ccc(CN(Cc2ccc(F)cc2)S(=O)(=O)c2c(F)c(F)c(F)c(F)c2F)cc1)NO` [Compound I-59, (E)-N-hydroxy-3-(4-((2,3,4,5,6-pentafluoro-N-(4-fluorobenzyl)phenylsulfonamido)methyl)phenyl)acrylamide], the negative-log IC50 (pIC50) at HDAC6 was 7.52 to 8.00; with MV-4-11 (MV4-11, Table 5) it was 6.23.

With `O=C(NO)c1ccc(CN(C2CC2)S(=O)(=O)c2c(F)cc(F)c(Cl)c2F)cc1` [Compound I-42, 4-((3-chloro-N-cyclopropyl-2,4,6-trifluorophenylsulfonamido)methyl)-N-hydroxybenzamide], the pIC50 in the data set with MV-4-11 (MV4-11, Table 4) is 6.13.

On to `O=C(/C=C/c1ccc(CNC(=O)c2cc(F)c(F)c(F)c2F)cc1)NO` [Compound I-82, (E)-2,3,4,5-tetrafluoro-N-(4-(3-(hydroxyamino)-3-oxoprop-1-en-1-yl)benzyl)benzamide], for which the pIC50 on HDAC6 was 7.52 to 8.00; in the data set with MV-4-11 (MV4-11, Table 5), 6.23. Consider `O=C(NO)c1ccc(CN(Cc2ccncc2F)S(=O)(=O)c2cc(F)c(F)c(F)c2F)cc1` [Compound I-28, N-hydroxy-4-((2,3,4,5-tetrafluoro-N-((3-fluoropyridin-4-yl)methyl)phenylsulfonamido)methyl)benzamide], for which the pIC50 in the data set on MOLM-13 (Table 4) is 6.18; in the data set with MV-4-11 (MV4-11, Table 4), 6.22. `COc1ccc(CN(Cc2ccc(/C=C/C(=O)NO)cc2)S(=O)(=O)c2c(F)c(F)c(F)c(F)c2F)cc1` [Compound I-61, (E)-N-hydroxy-3-(4-((2,3,4,5,6-pentafluoro-N-(4-methoxybenzyl)phenylsulfonamido)methyl)phenyl)acrylamide]: at HDAC6, the negative-log IC50 (pIC50) is 7.30 to 7.52. For the molecule `CN(C)c1ccc(CN(Cc2ccc(/C=C/C(=O)NO)cc2)S(=O)(=O)c2cc(F)c(F)c(F)c2F)cc1` [Compound I-69], the negative-log IC50 (pIC50) with MOLM-13 (Table 5) is 5.74; in the data set with MV-4-11 (MV4-11, Table 5), 5.80. Take `O=C(/C=C/c1ccc(CN(Cc2ccc(F)cc2)S(=O)(=O)c2cc(F)c(F)c(F)c2F)cc1)NO` [Compound I-68]: the negative-log IC50 (pIC50) with MV-4-11 (MV4-11, Table 5) was 6.10. For `O=C(NO)c1ccc(CN(Cc2cc(F)c(F)c(F)c2)S(=O)(=O)c2c(F)c(F)c(F)c(F)c2F)cc1` [Compound I-11, N-hydroxy-4-((2,3,4,5,6-pentafluoro-N-(3,4,5-trifluorobenzyl)phenylsulfonamido)methyl)benzamide], in the data set with MOLM-13 (Table 4), the pIC50 was 5.46.

For `O=C(/C=C/c1cccc(S(=O)(=O)Nc2ccccc2)c1)NO` [Belinostat], in data set [1], the half-life amounted to 2.35 h, the “Remaining Percentage (%) 0 min” value is recorded as 100%, the “Remaining Percentage (%) 15 min” value was found to be 88.6% and the “Remaining Percentage (%) 30 min” value is recorded as 78.8%. Further, in data set [1], the “Remaining Percentage (%) 45 min” value was found to be 75.0%, the “Remaining Percentage (%) 60 min” value turned out to be 72.1% and the “Remaining Percentage (%) 120 min” value came to 53.8%. As for `O=C(NO)c1ccc(CN(Cc2ccccc2)S(=O)(=O)c2cc(F)c(F)c(F)c2F)cc1` [Compound I-16, 4-((N-benzyl-2,3,4,5-tetrafluorophenylsulfonamido)methyl)-N-hydroxybenzamide], the negative logarithm of the IC50 (pIC50) in the data set with MV-4-11 (MV4-11, Table 4) was 6.72. As for `O=C(/C=C/c1ccc(CN(Cc2ccccc2)S(=O)(=O)c2cc(F)c(F)c(F)c2F)cc1)NO` [Compound I-67], the pIC50 with MV-4-11 (MV4-11, Table 5) was 5.94. Take `O=C(CCCCCCC(=O)Nc1ccccc1)NO` [Vorinostat]: in data set [1], the half-life amounted to 1.98 h, the “Remaining Percentage (%) 0 min” value was determined as 100%, the “Remaining Percentage (%) 15 min” value stood at 98.6% and the “Remaining Percentage (%) 30 min” value came out at 89.0%. Further, in data set [1], the “Remaining Percentage (%) 45 min” value is reported as 74.9%, the “Remaining Percentage (%) 60 min” value is listed as 68.4% and the “Remaining Percentage (%) 120 min” value was determined as 52.1%. Consider `O=C(/C=C/c1ccc(CNC(=O)c2c(F)c(F)c(F)c(F)c2F)cc1)NO` [Compound I-81, (E)-2,3,4,5,6-pentafluoro-N-(4-(3-(hydroxyamino)-3-oxoprop-1-en-1-yl)benzyl)benzamide], for which, at HDAC6, the pIC50 was 7.52 to 8.00. Consider `O=C(Cc1ccc(CN(C2CC2)S(=O)(=O)c2cc(F)c(F)c(F)c2F)cc1)NO` [Compound I-71, 2-(4-((N-cyclopropyl-2,3,4,5-tetrafluorophenylsulfonamido)methyl)phenyl)-N-hydroxyacetamide], for which, on HDAC6, the pIC50 is 6.82 to 7.00.

Regarding `CN(Cc1ccc(C(=O)NO)cc1)S(=O)(=O)c1c(F)c(F)c(F)c(F)c1F` [Compound I-2, N-hydroxy-4-((2,3,4,5,6-pentafluoro-N-methylphenylsulfonamido)methyl)benzamide], in the data set on MV-4-11 (MV4-11, Table 4), the pIC50 is 5.98. On to `COc1cc(/C=C/C(=O)NO)ccc1CN(Cc1cccnc1)S(=O)(=O)c1cc(F)c(F)c(F)c1F` [Compound I-78], for which the pIC50 in the data set on MOLM-13 (Table 5) is 5.54; in the data set with MV-4-11 (MV4-11, Table 5), 5.89.
